Tests used:
[1] = biological target: T1, parent SrEF-Tu from S. ramocissimus CBS 190.69 (Streptomyces ramocissimus, UniProt P29542); experiment: in vitro poly(U) directed poly(phe) synthesis; assay type: biochemical
T1 construct: made in house; host or cells: E. coli PM1455
Protocol: (§1) The sensitivity of SrEF-Tu mutants A378V and A378T to elfamycin was tested by in vitro studies. Both parent and mutant S. ramocissimus EF-Tu, after transformation of the respective cloned genes, were expressed in an E. coli strain encoding an elfamycin resistant EF-Tu. Cell-free extracts of these transformants were subsequently tested for elfamycin sensitivity of the translation apparatus, using a variation on the procedure described by C. Glöckner and H. Wolf (cited above). […] The parent SrEF-Tu reached 50% residual activity already at 1.6 mg/l. […]
(§2) Plasmids pUSrT1-1, pUSrT1V-1 and pUSrT1T-1 were transformed to E. coli PM1455 (tufA, tufB::Mu, rpoB, recA56; P. van der Meide et al., Eur. J. Biochem. 130 (1983) 409-417); this strain has only one active tuf gene, which encodes an elfamycin resistant EF-Tu. […] The first 4 fractions having absorbance at 260 nm were pooled. […]
(§3) At 0°C an incubation mixture was prepared consisting of 40 mM Tris-acetate pH 7.6, 10 mM Mg-acetate, 60 mM NH₄Cl, 5 mM β-mercaptoethanol, 1 mM ATP, 0.025 mM GTP, 2.5 mM phosphoenolpyruvate, 0.25 µg/ml pyruvate kinase, 0.8 mg/ml tRNA, 0.1 mg/ml poly(U), 95 µM phenylalanine, and 3 µCi/ml ³H-phenylalanine (57 Ci/mmol). […] Incorporation of ³H-phenylalanine was analyzed in a liquid scintillation counter. […]

[2] = test system: S. ramocissimus CBS 190.69; experiment: germination and growth of spores on solid medium (HI-agar); assay type: cell-based; set-up: key to Germination and growth of spores: +++ = good growth; ++ = slow growth; + = very slow growth; - = no growth
Protocol: (§4) Similar results were obtained on solid medium (HI-agar, Difco) containing 0 to 1 g/l mocimycin; spores from S. ramocissimus R1V and S. ramocissimus CBS 190.69 were diluted such that approximately 200 colony forming units were applied to each agar plate. Incubation of the plates was at 30°C for 5 days. For the control strain S. ramocissimus CBS 190.69 no colonies appeared above 0.1 g/l mocimycin; on the contrary, spores of S. ramocissimus strain R1V quantitatively were able to germinate and form colonies at least up to 0.75 g/l.

S. ramocissimus R1V = experiment: as above; assay type: cell-based; set-up: key to Germination and growth of spores: +++ = good growth; ++ = slow growth; + = very slow growth; - = no growth
Protocol: as §4

SrEF-Tu mutant A378V = biological target: T2, SrEF-Tu mutant A378V (Streptomyces ramocissimus, UniProt P29542, A379V); experiment: in vitro poly(U) directed poly(phe) synthesis; assay type: biochemical, S. ramocissimus
T2 construct: made in house; host or cells: E. coli PM1455
Protocol: as §1, §2, §3

[3] = 16 mg/l mocimycin, period of 40 minutes
[4] = S-30 extract of E. coli PM1455 transformant, reaction time 10 minutes
[5] = approximately 200 colony forming units per plate, 30°C for 5 days

T1 sequence (P29542 whole entry): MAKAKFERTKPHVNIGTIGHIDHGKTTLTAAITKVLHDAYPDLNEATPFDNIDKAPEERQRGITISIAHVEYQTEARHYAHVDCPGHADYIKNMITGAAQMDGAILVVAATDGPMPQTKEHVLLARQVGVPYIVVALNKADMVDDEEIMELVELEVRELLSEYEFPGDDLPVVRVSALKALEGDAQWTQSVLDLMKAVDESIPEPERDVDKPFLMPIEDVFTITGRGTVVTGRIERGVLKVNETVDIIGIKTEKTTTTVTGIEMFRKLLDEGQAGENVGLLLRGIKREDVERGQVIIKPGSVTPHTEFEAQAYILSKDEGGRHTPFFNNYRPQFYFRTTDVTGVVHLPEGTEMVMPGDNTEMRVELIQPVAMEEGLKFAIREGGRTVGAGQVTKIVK
T2 sequence (P29542 whole entry A379V): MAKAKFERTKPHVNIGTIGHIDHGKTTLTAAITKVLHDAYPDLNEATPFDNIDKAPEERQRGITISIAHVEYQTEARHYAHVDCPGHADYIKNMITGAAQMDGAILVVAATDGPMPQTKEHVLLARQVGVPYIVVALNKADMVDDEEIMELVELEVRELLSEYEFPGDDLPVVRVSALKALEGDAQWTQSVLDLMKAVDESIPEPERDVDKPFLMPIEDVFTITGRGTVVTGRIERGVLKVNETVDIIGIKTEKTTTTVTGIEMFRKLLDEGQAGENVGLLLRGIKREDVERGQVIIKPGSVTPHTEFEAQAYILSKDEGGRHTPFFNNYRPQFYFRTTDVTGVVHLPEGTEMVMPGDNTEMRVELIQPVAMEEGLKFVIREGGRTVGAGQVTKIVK

C/C=C\C=C\[C@@H]1O[C@](O)([C@H](CC)C(=O)NC/C=C/C=C(\C)[C@@H](OC)[C@H](C)[C@@H]2O[C@H](/C=C/C=C/C=C(\C)C(=O)c3c(O)cc[nH]c3=O)[C@H](O)[C@@H]2O)[C@H](O)[C@H](O)C1(C)C [mocimycin, Mocimycin]
efficiency of ³H-phenylalanine incorporation compared to the mocimycin free reaction [1, 3]: ≤ 20% | mocimycin concentration at a residual activity of 50% in the in vitro poly(phe) synthesis [1, 4]: 1.6 mg/L | mocimycin concentration above which no colonies appeared [2, 5]: above 0.1 g/l | Germination and growth of spores ([2]; mocimycin 0.10 g/l): + | Germination and growth of spores ([2]; mocimycin 0.20 g/l): - | Germination and growth of spores ([2]; mocimycin 0.40 g/l): - | Germination and growth of spores ([2]; mocimycin 0.60 g/l): - | Germination and growth of spores ([2]; mocimycin 0.75 g/l): - | Germination and growth of spores ([2]; mocimycin 1.0 g/l): - | mocimycin concentration up to which spores were able to germinate and form colonies (S. ramocissimus R1V; [5]): ≥ 0.75 g/L | Germination and growth of spores (S. ramocissimus R1V; mocimycin 0.10 g/l): +++ | Germination and growth of spores (S. ramocissimus R1V; mocimycin 0.20 g/l): +++ | Germination and growth of spores (S. ramocissimus R1V; mocimycin 0.40 g/l): ++ | Germination and growth of spores (S. ramocissimus R1V; mocimycin 0.60 g/l): ++ | Germination and growth of spores (S. ramocissimus R1V; mocimycin 0.75 g/l): + | Germination and growth of spores (S. ramocissimus R1V; mocimycin 1.0 g/l): - | efficiency of ³H-phenylalanine incorporation compared to the parallel incubation without mocimycin (SrEF-Tu mutant A378V; [3]): 80% | mocimycin concentration at a residual activity of 50% in the in vitro poly(phe) synthesis (SrEF-Tu mutant A378V; [4]): 160 mg/L

From patent EP0466251A1, “Elfamycin-resistant mutants” (priority 1990, dated 1992)
